Consider three molecules from paper PMC10967822, “Antimicrobial Indole-3-Carboxamido-Polyamine Conjugates Target Bacterial Membranes and Are Antibiotic Potentiators” (Biomolecules, 2024).

In brackets after ≈: the same amount, converted by molar mass. Some results are limits rather than exact numbers.

One data set deals with C. albicans ATCC 90028. The data set can be described thus: Antifungal MIC (CO-ADD), C. albicans. To be noted: Candida albicans, ATCC90028, top dose 32 µg/mL. Type of data set: cell-based. On the procedure:
(§1) For the antifungal assay, fungi strains were cultured for 3 days on YPD agar at 30 °C. A yeast suspension of 1 × 10^6 to 5 × 10^6 CFU/mL was prepared from five colonies. These stock suspensions were diluted with a yeast nitrogen base (YNB) (Becton Dickinson, 233520, New South Wales, Australia) broth to a final concentration of 2.5 × 10^3 CFU/mL. […] The plates were covered and incubated at 35 °C for 36 h without shaking. C. albicans MICs were determined by measuring the absorbance at OD530. For C. neoformans, resazurin was added at a 0.006% final concentration to each well and incubated for a further 3 h before the MICs were determined by measuring the absorbance at OD570–600. […] Fluconazole was used as a positive fungal inhibitor standard for C. albicans and C. neoformans. […] The quality control (QC) of the assays was determined by the antimicrobial controls and the Z′-factor (using positive and negative controls).
As a reminder, the MIC is the lowest concentration found to suppress growth. Molecule `Cc1ccc2[nH]cc(C(=O)NCCCNCCCCCCNCCCNC(=O)c3c[nH]c4ccc(C)cc34)c2c1` [Compound 15b] displayed an MIC above 41 µM.

`Cc1ccc2[nH]cc(C(=O)NCCCNCCCCCCCNCCCNC(=O)c3c[nH]c4ccc(C)cc34)c2c1` [Compound 15c] displayed an MIC above 41 µM.

In the case of `Cc1ccc2[nH]cc(C(=O)NCCCNCCCCCCCCNCCCNC(=O)c3c[nH]c4ccc(C)cc34)c2c1` [Compound 15d], the MIC is above 40 µM.

The test system of the next data set is K. pneumoniae ATCC 700603. The data set can be described thus: MIC, broth microdilution (CO-ADD), K. pneumoniae. Conditions: top dose 32 µg/mL. In general terms: Broth dilution looks for growth in wells or tubes with falling amounts of substance.
For the molecule `Cc1ccc2[nH]cc(C(=O)NCCCNCCCCCCNCCCNC(=O)c3c[nH]c4ccc(C)cc34)c2c1` [Compound 15b], the “MIC Kp” value is recorded as above 41 µM.

Regarding `Cc1ccc2[nH]cc(C(=O)NCCCNCCCCCCCNCCCNC(=O)c3c[nH]c4ccc(C)cc34)c2c1` [Compound 15c], the “MIC Kp” value was above 41 µM.

As for `Cc1ccc2[nH]cc(C(=O)NCCCNCCCCCCCCNCCCNC(=O)c3c[nH]c4ccc(C)cc34)c2c1` [Compound 15d], the “MIC Kp” value is on record as above 40 µM.

A further data set deals with P. aeruginosa ATCC 27853. In words: Doxycycline potentiation against P. aeruginosa. Type of data set: cell-based, Pseudomonas aeruginosa. Conditions: doxycycline at 2 µg/mL (4.5 µM), P. aeruginosa ATCC 27853. From the text:
(§2) These measurements were independently repeated in triplicate.
With `Cc1ccc2[nH]cc(C(=O)NCCCNCCCCCCNCCCNC(=O)c3c[nH]c4ccc(C)cc34)c2c1` [Compound 15b], the “Dox/Pa fold-change (intrinsic MIC / combination MIC)” value is listed as above 8 fold.

As for `Cc1ccc2[nH]cc(C(=O)NCCCNCCCCCCCNCCCNC(=O)c3c[nH]c4ccc(C)cc34)c2c1` [Compound 15c], the “Dox/Pa fold-change (intrinsic MIC / combination MIC)” value was above 4 fold.

Regarding `Cc1ccc2[nH]cc(C(=O)NCCCNCCCCCCCCNCCCNC(=O)c3c[nH]c4ccc(C)cc34)c2c1` [Compound 15d], the “Dox/Pa fold-change (intrinsic MIC / combination MIC)” value was found to be 8 fold.

Staying with this data set, now noted: doxycycline at 2 µg/mL (4.5 µM), P. aeruginosa ATCC 27853, mean n = 3.
On to `Cc1ccc2[nH]cc(C(=O)NCCCNCCCCCCNCCCNC(=O)c3c[nH]c4ccc(C)cc34)c2c1` [Compound 15b], for which the “Dox/Pa: concentration required to restore doxycycline activity (combination MIC)” value (“Dox/Pa: concentration required” for short) was 32.4 µM.

As to `Cc1ccc2[nH]cc(C(=O)NCCCNCCCCCCCNCCCNC(=O)c3c[nH]c4ccc(C)cc34)c2c1` [Compound 15c], the “Dox/Pa: concentration required” value amounted to 63.5 µM.

Regarding `Cc1ccc2[nH]cc(C(=O)NCCCNCCCCCCCCNCCCNC(=O)c3c[nH]c4ccc(C)cc34)c2c1` [Compound 15d], the “Dox/Pa: concentration required” value turned out to be 31.2 µM.

The next data set deals with C. neoformans ATCC 208821. In words: Antifungal MIC (CO-ADD), C. neoformans. Type of data set: cell-based. Conditions: Cryptococcus neoformans, ATCC208821, top dose 32 µg/mL. On the procedure: as §1
For the molecule `Cc1ccc2[nH]cc(C(=O)NCCCNCCCCCCNCCCNC(=O)c3c[nH]c4ccc(C)cc34)c2c1` [Compound 15b], the MIC is at most 0.32 µM.

Turning to `Cc1ccc2[nH]cc(C(=O)NCCCNCCCCCCCNCCCNC(=O)c3c[nH]c4ccc(C)cc34)c2c1` [Compound 15c], the MIC was at most 0.32 µM.

Molecule `Cc1ccc2[nH]cc(C(=O)NCCCNCCCCCCCCNCCCNC(=O)c3c[nH]c4ccc(C)cc34)c2c1` [Compound 15d] gave a minimum inhibitory concentration (MIC) of at most 0.31 µM.

Another data set concerns human red blood cells. The data set can be described thus: Hemolytic assay. Type of data set: cell-based. To be noted: 10% hemolytic activity, mean n = 2. On the procedure:
Human whole blood was washed three times with three volumes of 0.9% NaCl and then resuspended in the same solution to a concentration of 0.5 × 10^8 cells/mL, as determined by the manual cell count in a Neubauer hemocytometer. The washed cells were then added to the 384-well compound-containing plates for a final volume of 50 μL. After a 10 min shake on a plate shaker, the plates were then incubated for 1 h at 37 °C. After incubation, the plates were centrifuged at 1000× g for 10 min to pellet cells and debris; 25 μL of the supernatant was then transferred to a polystyrene 384-well assay plate. Hemolysis was determined by measuring the supernatant absorbance at […] (OD405). The absorbance was measured using a Tecan M1000 Pro monochromator plate reader. HC10 and HC50 (concentrations at 10% and 50% hemolysis, respectively) were calculated by a curve fitting the inhibition values vs. log (concentration) using a sigmoidal dose–response function with variable fitting values for the top, bottom, and slope.
Take `Cc1ccc2[nH]cc(C(=O)NCCCNCCCCCCNCCCNC(=O)c3c[nH]c4ccc(C)cc34)c2c1` [Compound 15b]: the “Hemolysis HC10” value was above 41 µM.

Regarding `Cc1ccc2[nH]cc(C(=O)NCCCNCCCCCCCNCCCNC(=O)c3c[nH]c4ccc(C)cc34)c2c1` [Compound 15c], the “Hemolysis HC10” value is above 41 µM.

As to `Cc1ccc2[nH]cc(C(=O)NCCCNCCCCCCCCNCCCNC(=O)c3c[nH]c4ccc(C)cc34)c2c1` [Compound 15d], the “Hemolysis HC10” value is on record as above 40 µM.

System in a further data set: not listed separately
In words: Cytotoxicity assay (resazurin). It counts as cell-based. Conditions: human, HEK293 cells, mean n = 2. On the technique in general: The colour change of resazurin is a common sign of viable cells or microbes.
As a reminder, the IC50 is the concentration at which inhibition is half-maximal. As to `Cc1ccc2[nH]cc(C(=O)NCCCNCCCCCCNCCCNC(=O)c3c[nH]c4ccc(C)cc34)c2c1` [Compound 15b], the 50% inhibitory concentration (IC50) at 20 h was above 41 µM.

For the molecule `Cc1ccc2[nH]cc(C(=O)NCCCNCCCCCCCNCCCNC(=O)c3c[nH]c4ccc(C)cc34)c2c1` [Compound 15c], the IC50 at 20 h is above 41 µM.

In turn, `Cc1ccc2[nH]cc(C(=O)NCCCNCCCCCCCCNCCCNC(=O)c3c[nH]c4ccc(C)cc34)c2c1` [Compound 15d] returned an IC50 at 20 h above 40 µM.

Another data set has as its system S. aureus ATCC 25923. The data set can be described thus: MIC, broth dilution, S. aureus. It counts as cell-based, Staphylococcus aureus. Conditions: Staphylococcus aureus, ATCC25923; S. aureus ATCC 25923, 18 h; read-out: MIC Sa.
Consider `Cc1ccc2[nH]cc(C(=O)NCCCNCCCCCCNCCCNC(=O)c3c[nH]c4ccc(C)cc34)c2c1` [Compound 15b], for which the MIC stood at 259 µM (≈ 141 µg/mL).

Regarding `Cc1ccc2[nH]cc(C(=O)NCCCNCCCCCCCNCCCNC(=O)c3c[nH]c4ccc(C)cc34)c2c1` [Compound 15c], the MIC came to 63.5 µM (≈ 35.5 µg/mL).

`Cc1ccc2[nH]cc(C(=O)NCCCNCCCCCCCCNCCCNC(=O)c3c[nH]c4ccc(C)cc34)c2c1` [Compound 15d]: the MIC turned out to be 31.2 µM (≈ 17.9 µg/mL).

Another data set relates to P. aeruginosa ATCC 27853. The data set can be described thus: MIC, broth dilution, P. aeruginosa. It counts as cell-based, Pseudomonas aeruginosa. Conditions: Pseudomonas aeruginosa, ATCC27853; P. aeruginosa ATCC 27853, 18 h; read-out: MIC Pa.
Consider `Cc1ccc2[nH]cc(C(=O)NCCCNCCCCCCNCCCNC(=O)c3c[nH]c4ccc(C)cc34)c2c1` [Compound 15b], for which the MIC was above 259 µM.

As to `Cc1ccc2[nH]cc(C(=O)NCCCNCCCCCCCNCCCNC(=O)c3c[nH]c4ccc(C)cc34)c2c1` [Compound 15c], the MIC is above 254 µM.

With `Cc1ccc2[nH]cc(C(=O)NCCCNCCCCCCCCNCCCNC(=O)c3c[nH]c4ccc(C)cc34)c2c1` [Compound 15d], the MIC was found to be 250 µM (≈ 143 µg/mL).

The subject of another data set is MRSA ATCC 43300. In words: MIC, broth microdilution (CO-ADD), MRSA. Type of data set: cell-based, methicillin-resistant S. aureus. Conditions: Staphylococcus aureus; MRSA ATCC 43300; top dose 32 µg/mL; read-out: MIC MRSA.
As to `Cc1ccc2[nH]cc(C(=O)NCCCNCCCCCCNCCCNC(=O)c3c[nH]c4ccc(C)cc34)c2c1` [Compound 15b], the minimal inhibitory concentration (MIC) amounted to 5.18 µM (≈ 2.82 µg/mL).

Consider `Cc1ccc2[nH]cc(C(=O)NCCCNCCCCCCCNCCCNC(=O)c3c[nH]c4ccc(C)cc34)c2c1` [Compound 15c], for which the MIC is at most 0.32 µM.

With `Cc1ccc2[nH]cc(C(=O)NCCCNCCCCCCCCNCCCNC(=O)c3c[nH]c4ccc(C)cc34)c2c1` [Compound 15d], the MIC was at most 0.31 µM.

The subject of the next data set is E. coli ATCC 25922. In words: MIC, broth dilution, E. coli. Type of data set: cell-based, Escherichia coli. Conditions: Escherichia coli, ATCC25922; E. coli ATCC 25922, 18 h.
On to `Cc1ccc2[nH]cc(C(=O)NCCCNCCCCCCNCCCNC(=O)c3c[nH]c4ccc(C)cc34)c2c1` [Compound 15b], for which the MIC came to 129 µM (≈ 70.3 µg/mL).

`Cc1ccc2[nH]cc(C(=O)NCCCNCCCCCCCNCCCNC(=O)c3c[nH]c4ccc(C)cc34)c2c1` [Compound 15c] showed an MIC of 254 µM (≈ 142 µg/mL).

With `Cc1ccc2[nH]cc(C(=O)NCCCNCCCCCCCCNCCCNC(=O)c3c[nH]c4ccc(C)cc34)c2c1` [Compound 15d], the lowest concentration to inhibit growth (MIC) was 125 µM (≈ 71.6 µg/mL).

Another data set concerns E. coli ATCC 25922. The data set can be described thus: Erythromycin potentiation against E. coli. It counts as cell-based, Escherichia coli. Conditions: erythromycin at 2 µg/mL (2.7 µM), E. coli.
Description: as §2
For the molecule `Cc1ccc2[nH]cc(C(=O)NCCCNCCCCCCNCCCNC(=O)c3c[nH]c4ccc(C)cc34)c2c1` [Compound 15b], the “Erythro/Ec fold-change (intrinsic MIC / combination MIC)” value stood at 4 fold.

Take `Cc1ccc2[nH]cc(C(=O)NCCCNCCCCCCCNCCCNC(=O)c3c[nH]c4ccc(C)cc34)c2c1` [Compound 15c]: the “Erythro/Ec fold-change (intrinsic MIC / combination MIC)” value amounted to 4 fold.

In the case of `Cc1ccc2[nH]cc(C(=O)NCCCNCCCCCCCCNCCCNC(=O)c3c[nH]c4ccc(C)cc34)c2c1` [Compound 15d], the “Erythro/Ec fold-change (intrinsic MIC / combination MIC)” value worked out at 4 fold.

Still in this data set, the particulars now being: erythromycin at 2 µg/mL (2.7 µM), mean n = 3.
On to `Cc1ccc2[nH]cc(C(=O)NCCCNCCCCCCNCCCNC(=O)c3c[nH]c4ccc(C)cc34)c2c1` [Compound 15b], for which the “Erythro/Ec: concentration required to restore erythromycin activity (combination MIC)” value (shortened to “Erythro/Ec: concentration required”) came to 32.4 µM.

As for `Cc1ccc2[nH]cc(C(=O)NCCCNCCCCCCCNCCCNC(=O)c3c[nH]c4ccc(C)cc34)c2c1` [Compound 15c], the “Erythro/Ec: concentration required” value was 63.5 µM.

For `Cc1ccc2[nH]cc(C(=O)NCCCNCCCCCCCCNCCCNC(=O)c3c[nH]c4ccc(C)cc34)c2c1` [Compound 15d], the “Erythro/Ec: concentration required” value came out at 31.2 µM.

Another data set relates to A. baumannii ATCC 19606. The data set can be described thus: MIC, broth microdilution (CO-ADD), A. baumannii. Type of data set: cell-based, Acinetobacter baumannii. To be noted: Acinetobacter baumannii, ATCC19606, top dose 32 µg/mL.
Consider `Cc1ccc2[nH]cc(C(=O)NCCCNCCCCCCNCCCNC(=O)c3c[nH]c4ccc(C)cc34)c2c1` [Compound 15b], for which the MIC is above 41 µM.

In turn, `Cc1ccc2[nH]cc(C(=O)NCCCNCCCCCCCNCCCNC(=O)c3c[nH]c4ccc(C)cc34)c2c1` [Compound 15c] returned an MIC above 41 µM.

Molecule `Cc1ccc2[nH]cc(C(=O)NCCCNCCCCCCCCNCCCNC(=O)c3c[nH]c4ccc(C)cc34)c2c1` [Compound 15d] returned a minimal inhibitory concentration (MIC) above 40 µM.
